Source: patent publication US12507703B2, “Methods, devices and compositions for preserving human milk” (The Trustees of Princeton University, priority 2023, dated 2025)
Where “and” joins values, the source holds several entries; their conditions need not be identical. Equal values may be shown once. Where a SMILES comes first, the peptide text is derived from it.

What follows are compounds tested on lipase (assay: Lipase/lipolysis assay (EnzChek Lipase Substrate, quenched BODIPY-fatty acid conjugate) on stored human milk; further: test concentration or dose not given here).

In order of falling “Lipase (RFU)” value:
1. Rebaudioside A  1278.993 RFU
2. COC1=CC(=O)O[C@@H](/C=C/c2ccc3c(c2)OCO3)C1 [Methylsticin]  1261.171 RFU
3. O=C[C@H](O)[C@@H](O)[C@H](O)[C@H](O)COP(=O)([O-])[O-].[Na+].[Na+] [D-Glucose 6-phosphate (disodium salt)]  1238.699 RFU
4. N=C(N)NCCC[C@@H](N)C(=O)O [D-Arginine]  1215.288 RFU
5. C[C@]12CC[C@@H]3c4cc(O)c(O)cc4CC[C@H]3[C@@H]1CC[C@@H]2O [Compound 2-Hydroxyestradiol]  1214.209 RFU
6. C=C(C[C@@H](O)[C@](C)(O)[C@H]1CC[C@@]2(O)C3=CC(=O)[C@@H]4C[C@@H](O)[C@@H](O)C[C@]4(C)[C@H]3CC[C@]12C)C(C)C [Polyporusterone B]  1175.382 RFU
7. Cc1cc(O[C@@H]2O[C@H](CO)[C@@H](O)[C@H](O)[C@H]2O)c2c(c1)C(=O)c1cc(O)cc(O)c1C2=O [Emodin-8-glucoside]  1174.326 RFU
8. CC(O)CO (stereo not shown) [1,2-Propanediol]  1150.168 RFU
9. O=C1C[C@@H](c2ccc(O[C@@H]3O[C@H](CO)[C@@H](O)[C@H](O)[C@H]3O)cc2)Oc2cc(O)cc(O)c21 [Choerospondin]  1121.626 RFU
10. O=P(O)(O)O[C@H]1O[C@H](CO)[C@@H](O)[C@H](O)[C@@H]1O [D-Mannose-1-Phosphate]  1121.007 RFU
11. CC1(C)CC[C@]2(C(=O)O)CC[C@]3(C)C(=CC[C@@H]4[C@@]5(C)C[C@@H](O)[C@H](O)C(C)(C)[C@@H]5CC[C@]43C)[C@@H]2C1 [Maslinic acid]  1120.923 RFU
12. NC(CCCC(=O)O)C(=O)O (stereo not shown) [Aminoadipic acid]  1118.253 RFU
13. N[C@@H](Cc1ccc(O)c(Cl)c1)C(=O)O [Compound 3-Chloro-L-tyrosine, 3-Chloro-L-tyrosine]  1117.619 RFU
14. CC(C)=CC(=O)C[C@H](C)c1ccc(C)cc1 [ar-Turmerone]  1106.99 RFU
15. Hyaluronic acid  1101.829 RFU
16. Oc1cc(O)c2c(c1)O[C@H](c1cc(O)c(O)c(O)c1)[C@@H](O)C2 [(+)-Gallocatechin]  1096.904 RFU
17. N[C@@H](CCC(=O)N[C@@H](Cc1ccccc1)C(=O)O)C(=O)O [γ-Glu-Phe]  1077.051 RFU
18. COc1cc(/C=C/C(=O)NCCc2c[nH]c3ccc(O)cc23)ccc1O [N-Feruloylserotonin]  1060.876 RFU
19. COc1cc(/C=C/C(=O)OCC[N+](C)(C)C)cc(OC)c1O.N#C[S-] [Sinapine (thiocyanate)]  1052.349 RFU
20. CC(=O)c1ccc2c(c1)C=CC(C)(C)O2 [Demethoxyencecalin]  1050.951 RFU
21. CCCCCCCCCCCCCC(=O)OC[C@@H](O)COP(=O)([O-])OCC[N+](C)(C)C [LysoPC(14:0/0:0)]  1043.126 RFU
22. CCOP(=O)(O)OCC [Diethyl phosphate]  1033.984 RFU
23. O=C(/C=C/c1ccc(O)c(O)c1)O[C@@H]1C[C@@](O)(C(=O)O)C[C@@H](O)[C@@H]1O [Neochlorogenic acid]  1024.869 RFU
24. COn1cc(CC#N)c2ccccc21 [Caulilexin C]  998.4752 RFU
25. C[C@H](N)C(=O)NCC(=O)O [(S)-2-(2-Aminopropanamido)acetic acid] (H-Ala-Gly-OH)  993.8076 RFU
26. O=C(O[C@@H]1Cc2c(O)cc(O)cc2O[C@@H]1c1ccc(O)c(O)c1)c1cc(O)c(O)c(O)c1 [(−)-Epicatechin gallate]  982.8268 RFU
27. C[C@H]1[C@H](C)CC[C@]2(C(=O)O)CC[C@]3(C)C(=CC[C@@H]4[C@@]5(C)CC[C@H](O)C(C)(C)[C@@H]5CC[C@]43C)[C@H]12 [3-Epiursolic Acid]  968.3096 RFU
28. COc1ccc2c(c1OC)CN(C)CCc1cc3c(cc1C(=O)C2)OCO3 [Allocryptopine]  960.1838 RFU
29. C[C@]12CC[C@H]3[C@@H](CC=C4C[C@@H](O)CC[C@@]43C)[C@@H]1CC[C@@H]2C(=O)CO [21-Hydroxypregnenolone]  955.7541 RFU
30. CC1(C)CCCC2(C)OC(=O)C=C12 (single isomer, unassigned; (+)) [(+)-Dihydroactinidiolide]  951.3124 RFU
31. CCCCCC(=O)O[C@H](CC(=O)[O-])C[N+](C)(C)C [L-Hexanoylcarnitine]  948.6206 RFU
32. Nc1ncnc2c1ncn2[C@H]1C[C@H](O)[C@@H](CO)O1.O [2′-Deoxyadenosine monohydrate]  945.7798 RFU
33. COc1cc2c(cc1OC)-c1c(OC)c(OC)cc3c1[C@H](C2)N(C)CC3 [Glaucine]  922.5844 RFU
34. COc1cc([C@@H]2Oc3c(O)cc([C@H]4Oc5cc(O)cc(O)c5C(=O)[C@@H]4O)cc3[C@H]2CO)ccc1O [Silychristin]  921.666 RFU
35. NCCP(=O)(O)O [(2-Aminoethyl)phosphonic acid]  914.5342 RFU
36. COc1cc2ccc(=O)oc2c2ccoc12 [Sphondin]  913.6372 RFU
37. c1cncc(C2=NCCC2)c1 [Myosmine]  909.737 RFU
38. OC1C(O)C(O)C(O)C(O)C1O [D-chiro-Inositol]  896.4132 RFU
39. COc1cc(O)c2c(=O)cc(-c3ccccc3)oc2c1 [Tectochrysin]  890.4365 RFU
40. CCCCCCCCCCC/C=C\CCCCC(=O)O [Petroselinic acid]  886.6723 RFU
41. CCCCCCCCO [Compound 1-Octanol]  882.5398 RFU
42. CC(CC(=O)C[C@@H](C)[C@H]1CC(=O)[C@@]2(C)C3=C(C(=O)C[C@]12C)[C@@]1(C)CC[C@H](O)C(C)(C)[C@@H]1C[C@@H]3O)C(=O)O (stereo partly shown) [Ganoderic acid B]  879.1619 RFU
43. CC(C)=C[C@H]1C[C@](C)(O)[C@@H]2[C@H]3CC[C@@H]4[C@@]5(C)CC[C@H](O[C@@H]6OC[C@H](O)[C@H](O[C@@H]7O[C@H](CO)[C@@H](O)[C@H](O)[C@H]7O[C@@H]7OC[C@@H](O)[C@H](O)[C@H]7O)[C@H]6O[C@@H]6O[C@@H](C)[C@H](O)[C@@H](O)[C@H]6O)C(C)(C)[C@@H]5CC[C@@]4(C)[C@@]34CO[C@@]2(C4)O1 [Jujuboside B]  877.6814 RFU
44. COc1ccc([C@@H]2CC(=O)c3c(O)cc(O[C@@H]4O[C@H](CO)[C@@H](O)[C@H](O)[C@H]4O)cc3O2)cc1 [Isosakuranin]  864.5248 RFU
45. O=c1c(O)c(-c2ccc(O)c(O)c2)oc2cc(O[C@@H]3O[C@H](CO)[C@@H](O)[C@H](O)[C@H]3O)cc(O)c12 [Quercimeritrin]  857.409 RFU
46. CN1[C@@H]2CC[C@H]1CC(=O)C2 [Tropinone]  856.4439 RFU
47. COc1cc(O)c2c(c1)O[C@H](c1cc(O)cc(O)c1)CC2=O [Blumeatin]  847.8117 RFU
48. COc1ccc(C(=O)/C=C/c2ccc(O)cc2)c(O)c1CC=C(C)C [Compound 4-Hydroxyderricin]  842.4877 RFU
49. CC1=C(C)C(=O)O[C@@H]([C@](C)(O)[C@H]2CC[C@H]3[C@@H]4[C@@H]5O[C@@H]5[C@@]5(O)CC=CC(=O)[C@]5(C)[C@H]4CC[C@]23C)C1 [Withanolide A]  840.7696 RFU
50. C[C@H]1CC[C@@H]2[C@@H](C)[C@H]3[C@H](C[C@H]4[C@@H]5CC=C6C[C@@H](O[C@@H]7O[C@H](CO)[C@H](O)[C@H](O[C@@H]8O[C@H](CO)[C@@H](O)[C@H](O)[C@H]8O)[C@H]7O[C@@H]7O[C@@H](C)[C@H](O)[C@@H](O)[C@H]7O)CC[C@]6(C)[C@H]5CC[C@]34C)N2C1 [α-Solanine]  840.4474 RFU
51. O=C(/C=C/c1ccc(O)c(O)c1)O[C@@H]1CC(O)(C(=O)O)C[C@@H](OC(=O)/C=C/c2ccc(O)c(O)c2)C1O (stereo partly shown) [Isochlorogenic acid A]  827.6093 RFU
52. Cc1ccc(OS(=O)(=O)[O-])cc1.[K+] [p-Cresyl sulfate (potassium)]  825.569 RFU
53. COc1ccc(-c2cc(=O)c3c(OC)cc(OC)c(OC)c3o2)cc1 [6-Demethoxytangeretin]  818.2248 RFU
54. C[C@@H]1O[C@@H](OC[C@H]2O[C@@H](Oc3c(-c4ccc(O)cc4)oc4cc(O)cc(O)c4c3=O)[C@H](O)[C@@H](O)[C@@H]2O)[C@H](O)[C@H](O)[C@H]1O [Nicotiflorin]  810.1075 RFU
55. Carbinoxamine maleate salt  807.8179 RFU
56. Nc1ncnc2c1ncn2[C@@H]1O[C@H](COP(=O)(O)OP(=O)([O-])OP(=O)([O-])O)[C@@H](O)[C@H]1O.O.[Na+].[Na+] [ATP (disodium salt hydrate)]  750.5023 RFU
57. Glycogen  745.3227 RFU
58. CC(C)CC(=O)O[C@H](CC(=O)[O-])C[N+](C)(C)C [Isovalerylcarnitine]  737.2804 RFU
59. O=C(O)CCCC(=O)C(=O)O [Oxoadipic acid]  732.376 RFU
60. O=C([O-])O.[K+] [Potassium bicarbonate]  726.638 RFU
61. O=C1O[C@H](CO)[C@@H](O)[C@H]1O [D-Ribonolactone]  702.8507 RFU
62. N[C@@H](CCC(=O)N[C@@H](CSN=O)C(=O)NCC(=O)O)C(=O)O [Nitrosoglutathione]  688.3783 RFU
63. CC(C)=CCc1c2ccoc2c(O)c2oc(=O)ccc12 [Alloimperatorin]  601.2746 RFU
64. (−)-Epigallocatechin Gallate  333.087 RFU

With `C[N+](C)(C)CC(O)CC(=O)[O-]` (racemic) [D,L-Carnitine] the “Lipase (RFU)” value was 1067.602 RFU and 1032.196 RFU.
With `CCCCCCCCCC=O` [Decyl aldehyde] the “Lipase (RFU)” value was 807.9785 RFU and 682.2968 RFU.
For `COc1ccc(C)cc1` [Compound 4-Methylanisole, 4-Methylanisole], the “Lipase (RFU)” value was 864.3612 RFU and 916.5396 RFU.
`C=CCc1ccc(OC)cc1` [Estragole] was tested, and the “Lipase (RFU)” value was 655.6447 RFU and 832.8206 RFU.
With `C[N+](C)(C)[O-]` [Trimethylamine N-oxide] the “Lipase (RFU)” value was 948.4231 RFU and 1147.152 RFU.
`C[C@H](CCC(=O)O)[C@H]1CC[C@H]2[C@@H]3[C@H](O)C[C@@H]4C[C@H](O)CC[C@]4(C)[C@H]3C[C@H](O)[C@]12C` [Cholic acid (sodium)] was tested, and the “Lipase (RFU)” value was 828.0633 RFU and 816.2579 RFU.
